Reference: BindingDB's records for patent US9796704 (SYMPHONY EVOLUTION, INC., 2017)

What was measured:
Experiment in all cases: AlphaScreen Assay
[1] = molecular target: T1, Ephrin type-B receptor 4 (Homo sapiens, UniProt P54760)
T1 sequence (P54760 whole entry): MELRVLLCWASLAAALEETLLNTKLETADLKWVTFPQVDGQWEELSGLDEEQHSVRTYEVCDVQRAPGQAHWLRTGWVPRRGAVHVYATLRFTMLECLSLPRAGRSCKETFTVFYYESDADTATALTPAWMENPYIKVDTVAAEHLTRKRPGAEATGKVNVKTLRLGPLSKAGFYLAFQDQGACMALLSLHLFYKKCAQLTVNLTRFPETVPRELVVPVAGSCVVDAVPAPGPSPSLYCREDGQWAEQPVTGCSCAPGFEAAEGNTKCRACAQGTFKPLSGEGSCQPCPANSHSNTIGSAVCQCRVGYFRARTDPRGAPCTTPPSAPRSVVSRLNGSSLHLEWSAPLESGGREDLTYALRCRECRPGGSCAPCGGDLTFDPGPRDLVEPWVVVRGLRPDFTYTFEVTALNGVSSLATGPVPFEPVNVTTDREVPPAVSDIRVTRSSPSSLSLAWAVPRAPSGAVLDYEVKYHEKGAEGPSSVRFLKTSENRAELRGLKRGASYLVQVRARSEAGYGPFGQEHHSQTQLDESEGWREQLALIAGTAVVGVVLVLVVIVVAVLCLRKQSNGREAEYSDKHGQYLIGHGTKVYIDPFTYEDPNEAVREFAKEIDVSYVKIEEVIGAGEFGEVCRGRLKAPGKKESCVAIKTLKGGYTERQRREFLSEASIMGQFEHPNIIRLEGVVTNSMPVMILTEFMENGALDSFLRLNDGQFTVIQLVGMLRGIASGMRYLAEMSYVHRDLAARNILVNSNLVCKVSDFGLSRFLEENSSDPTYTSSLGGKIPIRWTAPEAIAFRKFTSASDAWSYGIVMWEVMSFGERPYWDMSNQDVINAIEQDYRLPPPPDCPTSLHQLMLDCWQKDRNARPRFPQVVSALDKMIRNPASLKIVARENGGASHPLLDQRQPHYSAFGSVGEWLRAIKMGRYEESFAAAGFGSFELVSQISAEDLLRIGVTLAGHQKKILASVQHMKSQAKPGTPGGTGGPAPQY
Description: (§1) In AlphaScreen, when the donor and acceptor beads are close in proximity, a series of photochemical events will give rise to a fluorescent signal upon light activation. Here we use biotinylated poly-(Glu, Tyr) 4:1 as the kinase substrate, streptavidin-coated donor beads and anti-phosphortyrosine antibody PY100-coated acceptor beads. […] Compounds, ATP, biotinylated poly-(Glu, Tyr) and kinases are mixed in a volume of 20 μL for 1 hr at ambient temperature using Greiner 384-well white clear bottom medium binding plates. Then 10 uL solution containing 15-30 mg/mL AlphaScreen beads, 75 mM Hepes, pH 7.4, 300 mM NaCl, 120 mM EDTA, 0.3% BSA and 0.03% Tween-20 is added to each well. After 2-16 hr incubation of the beads, plates are read in a Perkin Elmer AlphaQuest reader (available from PerkinElmer Life and Analytical Sciences, Inc., of Boston Mass.).

[2] = molecular target: Ephrin type-A receptor 2 (Homo sapiens, UniProt P29317)
Description: as §1

[3] = molecular target: Vascular endothelial growth factor receptor 2 (Homo sapiens, UniProt P35968)
Vascular endothelial growth factor receptor 2, sequence (P35968 whole entry): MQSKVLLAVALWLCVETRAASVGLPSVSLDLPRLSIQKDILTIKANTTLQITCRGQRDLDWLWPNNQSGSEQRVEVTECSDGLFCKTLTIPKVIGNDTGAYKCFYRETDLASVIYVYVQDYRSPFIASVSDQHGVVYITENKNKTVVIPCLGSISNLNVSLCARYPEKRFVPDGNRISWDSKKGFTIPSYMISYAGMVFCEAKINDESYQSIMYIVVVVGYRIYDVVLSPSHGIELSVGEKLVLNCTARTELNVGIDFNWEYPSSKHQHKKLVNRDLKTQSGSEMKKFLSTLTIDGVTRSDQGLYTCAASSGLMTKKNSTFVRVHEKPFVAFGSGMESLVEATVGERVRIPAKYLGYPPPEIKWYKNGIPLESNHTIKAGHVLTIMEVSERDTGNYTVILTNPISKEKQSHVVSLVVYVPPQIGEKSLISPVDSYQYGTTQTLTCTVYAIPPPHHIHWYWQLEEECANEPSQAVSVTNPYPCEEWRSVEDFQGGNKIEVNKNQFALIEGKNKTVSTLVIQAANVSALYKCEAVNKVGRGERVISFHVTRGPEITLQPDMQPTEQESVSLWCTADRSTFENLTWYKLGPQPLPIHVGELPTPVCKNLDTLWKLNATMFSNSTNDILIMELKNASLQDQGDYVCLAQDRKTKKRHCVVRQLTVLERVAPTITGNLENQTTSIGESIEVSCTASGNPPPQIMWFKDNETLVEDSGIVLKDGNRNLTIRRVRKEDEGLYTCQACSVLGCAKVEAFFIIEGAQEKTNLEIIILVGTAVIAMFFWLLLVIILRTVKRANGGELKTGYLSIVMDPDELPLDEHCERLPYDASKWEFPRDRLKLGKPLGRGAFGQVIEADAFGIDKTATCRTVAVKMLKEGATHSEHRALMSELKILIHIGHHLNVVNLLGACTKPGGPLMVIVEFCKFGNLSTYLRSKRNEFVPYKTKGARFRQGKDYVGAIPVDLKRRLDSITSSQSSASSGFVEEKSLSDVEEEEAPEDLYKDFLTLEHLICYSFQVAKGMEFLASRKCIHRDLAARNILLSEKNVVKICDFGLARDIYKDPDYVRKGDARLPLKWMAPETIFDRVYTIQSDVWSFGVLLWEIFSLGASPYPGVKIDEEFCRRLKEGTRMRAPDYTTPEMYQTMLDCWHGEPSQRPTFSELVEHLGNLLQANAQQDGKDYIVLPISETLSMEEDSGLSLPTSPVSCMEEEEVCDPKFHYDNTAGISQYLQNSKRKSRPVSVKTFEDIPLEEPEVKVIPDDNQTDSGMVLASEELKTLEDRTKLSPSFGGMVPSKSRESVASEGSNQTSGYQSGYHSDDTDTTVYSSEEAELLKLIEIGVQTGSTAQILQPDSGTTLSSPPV
Description: as §1

Ephrin type-A receptor 2, sequence (P29317 whole entry): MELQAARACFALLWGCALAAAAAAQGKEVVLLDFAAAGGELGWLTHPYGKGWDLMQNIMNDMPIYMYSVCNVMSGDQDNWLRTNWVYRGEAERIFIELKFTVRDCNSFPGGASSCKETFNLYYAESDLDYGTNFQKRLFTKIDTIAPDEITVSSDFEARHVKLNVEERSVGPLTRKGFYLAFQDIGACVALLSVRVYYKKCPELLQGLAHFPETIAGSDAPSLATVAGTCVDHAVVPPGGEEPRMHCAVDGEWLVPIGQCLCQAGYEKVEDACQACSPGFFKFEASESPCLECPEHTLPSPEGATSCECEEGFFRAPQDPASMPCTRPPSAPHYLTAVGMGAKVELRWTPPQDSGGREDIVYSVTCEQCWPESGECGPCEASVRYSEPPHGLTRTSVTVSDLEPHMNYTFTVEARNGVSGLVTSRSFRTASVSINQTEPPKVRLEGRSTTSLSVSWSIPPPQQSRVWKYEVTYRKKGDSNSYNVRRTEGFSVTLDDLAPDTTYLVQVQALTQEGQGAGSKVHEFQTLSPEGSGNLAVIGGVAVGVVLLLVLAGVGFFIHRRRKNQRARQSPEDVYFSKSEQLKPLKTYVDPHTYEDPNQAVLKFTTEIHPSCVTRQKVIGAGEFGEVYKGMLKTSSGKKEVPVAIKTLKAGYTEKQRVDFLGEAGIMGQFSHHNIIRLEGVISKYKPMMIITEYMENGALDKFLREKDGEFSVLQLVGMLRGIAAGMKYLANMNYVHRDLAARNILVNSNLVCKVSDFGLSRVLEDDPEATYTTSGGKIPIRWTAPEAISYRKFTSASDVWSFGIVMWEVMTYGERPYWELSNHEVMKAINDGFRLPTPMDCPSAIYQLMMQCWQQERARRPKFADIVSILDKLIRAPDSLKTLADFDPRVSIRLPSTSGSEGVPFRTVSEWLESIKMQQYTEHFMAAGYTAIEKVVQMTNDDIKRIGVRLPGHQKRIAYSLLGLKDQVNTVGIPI

SMILES | IC50 [1] | IC50 [2] | IC50 [3]
COc1cc2c(Nc3ccc(Cl)c(Cl)c3F)ncnc2cc1OC[C@H]1CN2CCOCC2CO1 (stereo partly specified) [US9796704, Entry 29] | in the range around 525 nM | < 50 nM | in the range around 525 nM
COc1cc2c(Nc3ccc(Br)c(Cl)c3F)ncnc2cc1OC[C@H]1CN2CCOCC2CO1 (stereo partly specified) [US9796704, Entry 30] | < 50 nM | < 50 nM | in the range around 525 nM
COc1cc2c(Nc3ccc(F)c(Cl)c3F)ncnc2cc1OCC1CO[C@@H]2[C@@H](OC)CO[C@H]12 (stereo partly specified) [US9796704, Entry 45] | in the range around 10500 nM | in the range around 10500 nM | in the range around 10500 nM
COc1cc2c(Nc3ccc(Cl)c(Cl)c3)ncnc2cc1OCC1CO[C@@H]2C(OC)CO[C@H]12 (stereo partly specified) [US9796704, Entry 47] | in the range around 10500 nM | in the range around 10500 nM | in the range around 10500 nM
C=C1CO[C@@H]2[C@@H](Oc3cc4ncnc(Nc5ccc(Br)c(Cl)c5)c4cc3OC)CO[C@H]12 [US9796704, Entry 81] | in the range around 525 nM | in the range around 525 nM | in the range around 525 nM
COc1cc2c(Nc3ccc(Br)c(Cl)c3)ncnc2cc1O[C@H]1CO[C@@H]2[C@@H](OC)[C@@H](OC)O[C@@H]21 [US9796704, Entry 82] | in the range around 525 nM | in the range around 525 nM | in the range around 525 nM
COc1cc2c(Nc3ccc(Cl)c(Cl)c3F)ncnc2cc1OCC1CCC2CCCCN2C1 (stereo unspecified) [US9796704, Entry 83] | in the range around 525 nM | in the range around 525 nM | in the range around 525 nM
COc1cc2c(Nc3ccc(F)c(Cl)c3)ncnc2cc1O[C@@H]1CO[C@@H]2[C@H]1OC[C@H]2F [US9796704, Entry 95] | in the range around 525 nM | in the range around 525 nM | in the range around 525 nM
COc1cc2c(Nc3c(F)cc(F)cc3F)ncnc2cc1O[C@@H]1CO[C@@H]2[C@H]1OC[C@H]2F [US9796704, Entry 100] | in the range around 525 nM | in the range around 525 nM | in the range around 525 nM
COc1cc2c(Nc3cc(F)c(Oc4ccc(Cl)cc4)c(F)c3)ncnc2cc1O[C@@H]1CO[C@@H]2[C@H]1OC[C@H]2F [US9796704, Entry 101] | in the range around 525 nM | in the range around 525 nM | in the range around 525 nM
COc1cc2c(Nc3ccccc3Cl)ncnc2cc1O[C@@H]1CO[C@@H]2[C@H]1OC[C@H]2F [US9796704, Entry 112] | in the range around 525 nM | in the range around 525 nM | in the range around 525 nM
COc1cc2c(Nc3ccc(Cl)cc3)ncnc2cc1O[C@@H]1CO[C@@H]2[C@H]1OC[C@H]2F [US9796704, Entry 116] | in the range around 525 nM | in the range around 525 nM | in the range around 525 nM
COc1cc2c(Nc3ccc(Br)cc3)ncnc2cc1O[C@@H]1CO[C@@H]2[C@H]1OC[C@H]2F [US9796704, Entry 130] | in the range around 525 nM | in the range around 525 nM | in the range around 525 nM

Continued, values first:

IC50 [1] | IC50 [2] | IC50 [3] | SMILES
in the range around 525 nM | in the range around 525 nM | in the range around 525 nM | COc1cc2c(Nc3ccc(F)cc3Cl)ncnc2cc1O[C@@H]1CO[C@@H]2[C@H]1OC[C@H]2F [US9796704, Entry 85]
in the range around 525 nM | in the range around 525 nM | in the range around 525 nM | COc1cc2c(Nc3ccc(F)cc3Br)ncnc2cc1O[C@@H]1CO[C@@H]2[C@H]1OC[C@H]2F [US9796704, Entry 86]
in the range around 525 nM | in the range around 525 nM | in the range around 10500 nM | COc1cc2c(Nc3cccc(Cl)c3F)ncnc2cc1O[C@@H]1CO[C@@H]2[C@H]1OC[C@H]2F [US9796704, Entry 88]
in the range around 525 nM | in the range around 525 nM | in the range around 525 nM | COc1cc2c(Nc3cc(F)ccc3F)ncnc2cc1O[C@@H]1CO[C@@H]2[C@H]1OC[C@H]2F [US9796704, Entry 91]
in the range around 525 nM | in the range around 525 nM | in the range around 525 nM | COc1cc2c(Nc3cc(Cl)ccc3F)ncnc2cc1O[C@@H]1CO[C@@H]2[C@H]1OC[C@H]2F [US9796704, Entry 93]
in the range around 525 nM | in the range around 525 nM | in the range around 525 nM | COc1cc2c(Nc3ccc(Br)c(Cl)c3F)ncnc2cc1O[C@@H]1CO[C@@H]2[C@H]1OC[C@H]2F [US9796704, Entry 102]
in the range around 525 nM | in the range around 525 nM | in the range around 525 nM | COc1cc2c(Nc3cccc(Cl)c3C)ncnc2cc1O[C@@H]1CO[C@@H]2[C@H]1OC[C@H]2F [US9796704, Entry 110]
in the range around 525 nM | in the range around 525 nM | in the range around 525 nM | COc1cc2c(Nc3ccccc3F)ncnc2cc1O[C@@H]1CO[C@@H]2[C@H]1OC[C@H]2F [US9796704, Entry 113]
in the range around 525 nM | in the range around 525 nM | in the range around 525 nM | COc1cc2c(Nc3ccc(Cl)c(C(F)(F)F)c3)ncnc2cc1O[C@@H]1CO[C@@H]2[C@H]1OC[C@H]2F [US9796704, Entry 121]
in the range around 525 nM | in the range around 525 nM | in the range around 525 nM | COc1cc2c(Nc3cccc(C(F)(F)F)c3F)ncnc2cc1O[C@@H]1CO[C@@H]2[C@H]1OC[C@H]2F [US9796704, Entry 123]
in the range around 525 nM | in the range around 525 nM | in the range around 525 nM | COc1cc2c(Nc3cc(C(F)(F)F)ccc3Br)ncnc2cc1O[C@@H]1CO[C@@H]2[C@H]1OC[C@H]2F [US9796704, Entry 124]
in the range around 525 nM | in the range around 525 nM | in the range around 10500 nM | COc1cc2c(Nc3ccc(F)cc3C(F)(F)F)ncnc2cc1O[C@@H]1CO[C@@H]2[C@H]1OC[C@H]2F [US9796704, Entry 126]
in the range around 525 nM | in the range around 525 nM | in the range around 525 nM | COc1cc2c(Nc3ccccc3Br)ncnc2cc1O[C@@H]1CO[C@@H]2[C@H]1OC[C@H]2F [US9796704, Entry 128]
in the range around 525 nM | in the range around 525 nM | in the range around 525 nM | COc1cc2c(Nc3ccc(C)c(Br)c3)ncnc2cc1O[C@@H]1CO[C@@H]2[C@H]1OC[C@H]2F [US9796704, Entry 131]
